Assay results: PubChem BioAssay (NCI)
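All cell lines were grown in 96-well plates and treated with compound for 48 hours. The concentration for 50% growth inhibition is given as GI50. The concentration for full growth arrest is given as TGI.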

Columns and labels:
Assay in all cases: growth of human tumour cells (NCI), 48 h
[1] = tested on: SNB-75 CNS
[2] = tested on: TK-10 renal
[3] = tested on: DU-145 prostate
[4] = tested on: SF-539 CNS
[5] = tested on: 786-0 renal
[6] = tested on: HCT-116 colon
[7] = tested on: HOP-62 NSCLC
[8] = tested on: A549 NSCLC
[9] = tested on: SR leukemia
[10] = tested on: NCI/ADR-RES ovarian
[11] = tested on: UO-31 renal
[12] = tested on: OVCAR-5 ovarian
[13] = tested on: SK-MEL-5 melanoma
[14] = tested on: SN12C renal
[15] = tested on: EKVX NSCLC
[16] = tested on: SW-620 colon
[17] = tested on: MOLT-4 leukemia
[18] = tested on: M14 melanoma
[19] = tested on: A498 renal
[20] = tested on: SK-OV-3 ovarian
[21] = tested on: OVCAR-8 ovarian
[22] = tested on: NCI-H23 lung
[23] = tested on: PC-3 prostate
[24] = tested on: SK-MEL-2 melanoma
[25] = tested on: RPMI-8226 leukemia
[26] = tested on: NCI-H522 lung
[27] = tested on: HS 578T breast
[28] = tested on: SF-268 CNS
[29] = tested on: COLO 205 colon

SMILES: CCCCCCCC(=O)SCC/C=C/[C@@H]1CC(=O)NCc2nc(co2)C2=N[C@@](C)(CS2)C(=O)N[C@@H](C(C)C)C(=O)O1
- GI50 [1]: 10.8 nM
- TGI [1]: > 50000 nM
- GI50 [2]: 11.7 nM
- TGI [2]: 126 nM
- GI50 [3]: 12.3 nM
- TGI [3]: > 50000 nM
- GI50 [4]: 18.2 nM
- TGI [4]: > 50000 nM
- GI50 [5]: 45.6 nM
- TGI [5]: > 50000 nM
- GI50 [6]: 12.6 nM
- TGI [6]: 1140 nM
- GI50 [7]: 16.9 nM
- GI50 [8]: 18.4 nM
- TGI [8]: 1910 nM
- GI50 [9]: 16.4 nM
- TGI [9]: > 50000 nM
- GI50 [10]: 606 nM
- TGI [10]: > 31600 nM
- GI50 [11]: 43 nM
- TGI [11]: 487 nM
- GI50 [12]: 8.49 nM
- TGI [12]: > 50000 nM
- GI50 [13]: 17.9 nM
- TGI [13]: 77.6 nM
- GI50 [14]: 50.8 nM
- TGI [14]: > 50000 nM
- GI50 [15]: 34.4 nM
- TGI [15]: > 50000 nM
- GI50 [16]: 42.3 nM
- TGI [16]: 1900 nM
- GI50 [17]: 24.1 nM
- TGI [17]: 25700 nM
- GI50 [18]: 20.5 nM
- TGI [18]: > 50000 nM
- GI50 [19]: 9.6 nM
- TGI [19]: 39.6 nM
- GI50 [20]: 10.7 nM
- TGI [20]: 101 nM
- GI50 [21]: 12.4 nM
- TGI [21]: > 50000 nM
- GI50 [22]: 41.1 nM
- GI50 [23]: 14.2 nM
- TGI [23]: > 50000 nM
- GI50 [24]: 13.2 nM
- TGI [24]: 331 nM
- GI50 [25]: 90 nM
- TGI [25]: > 50000 nM
- GI50 [26]: 8.08 nM
- TGI [26]: 121 nM
- GI50 [27]: 12.5 nM
- GI50 [28]: 42.2 nM
- TGI [28]: 8340 nM
- GI50 [29]: 34.2 nM
- TGI [29]: 141 nM
